One data set relates to gastric mucosal cells. Nature of the data set: TUNEL assay of gastric mucosa in vivo. Further details: species or system rats.
Data set [1] has as its system Ethanol-induced gastric mucosal injury. As to the kind of experiment: Ethanol-induced gastric mucosal injury. The following applies: 1 ml of 50% ethanol oral; rats. Type of data set: in vivo, Sprague-Dwaley rats.
The subject of the next data set is caspase-3. Nature of the data set: Caspase-3 activity in gastric mucosal tissue. In kind it is in vivo, rats. As to conditions: in dose dependent manner; gastric mucosa. The protocol:
From cytosolic fraction of gastric mucosal tissues, caspase-9 and caspse-3 activities were measured using commercially available kit (Biovision, Mountain View, Calif., USA and Sigma respectively). In brief, the gastric mucosa was homogenized in caspase lysis buffer (provided with the respective kit). The homogenate was centrifuged at 16,000×g for 15 min. The supernatant was collected and mixed with 50 μl of 2× reaction buffer (provided with the respective kit). This was followed by addition of the substrates: […] (200 μM final concentration) for caspase-3 and LEHD-pNA (200 μM final concentration) for caspase-9. The mixture was incubated at 37° C. for 1 hr and absorbance was taken at 405 nm (Maity, P.; et al. J. Biol. Chem. 284:3058-3068; 2009, Maity, P.; et al. J. Biol. Chem. 283:14391-14401; 2008, Maity, P.; et al. J. Pineal Res. 46:314-323; 2009).

The test system of data set [2] is intra mitochondrial superoxide. Nature of the data set: Intra mitochondrial superoxide (MitoSOX). Type of data set: cell-based, rat. As to conditions: indomethacin-treated cultured gastric mucosal cells; pretreatment. The procedure: Isolated mucosal cells from both control and indomethacin-treated cultured gastric mucosa were used for detection of intra mitochondrial superoxide using MitoSOX, an superoxide-sensitive fluorescence probe following the protocol as described in the product catalogue (Maity, P.; et al. J. Biol. Chem. 284:3058-3068; 2009). Cells were stained with the respective fluorescent probe in HB SS (pH 7.4) and incubated for 15 min at 37° C. in the dark as described in the manufacture's protocols. After the incubation, cells were washed with HBSS three times and continued for fluorescence microscopy (Leica, DM-2500, Leica Microsystems). Staining of MitoSOX was visualized using Red filter.

Data set [3] relates to gastric mucosal primary cultured cells. As to the kind of experiment: Mitochondrial dehydrogenase activity (MTT reduction assay). In kind it is cell-based, rat. The protocol: Mitochondrial metabolic function was studied by observing the ability of mitochondrial dehydrogenases to reduce MTT ([3-(4,5-dimethylthiazol-2-yl)-2,5-diphenyl tetrazolium bromide]) into formazan dye (Pal, C; et al. Free Radic Biol Med, 49(2), 258-267; 2010). Equal number of gastric mucosal primary cultured cells were taken (10^6) in each well of a 12 well plate and were divided into three groups control, indomethacin treated (5 mM) and SEGA (50 μM) plus indomethacin (5 mM)-treated. After incubating for 16 hrs, cells were dissociated and centrifuged at 500×g for 5 min and the supernatant was then discarded. Cell pellet was reconstituted in fresh cell culture media. Equal number of cells (10^5 cells) in a final volume of 100 μl cell culture media from each group was then taken in 96 well plates in triplicates. MTT (0.1% final concentration) solution was added to each well of both control and experimental groups, mixed well and incubated for 3 hrs at 37° C. in a CO2 incubator. After the incubation, the culture medium was aspirated carefully and the insoluble formazan crystals at the bottom of the well were solubilized with 100 μl of MTT solubilization solution containing 10% Triton X-100 plus 0.1 N HCl in anhydrous isopropanol. The MTT reduction (absorbance of formazan dye) was measured at 570 nm.
(In general: Formazan colour is commonly taken as a measure of viable cells.)

In data set [4] the test system is indomethacin-induced gastric mucosal injury. As to the kind of experiment: Healing effect on indomethacin-induced gastric damage. The following applies: 50 mg kg^−1 i.p. 4 hrs after indomethacin 48 mg kg^−1. In kind it is in vivo, Sprague-Dwaley rats. The procedure: Gastric mucosal injury was first induced with indomethacin treatment at a dose of 48 mg kg^−1. After 4 hrs of the induction of mucosal injury, some of the animals were divided into two different groups (n=6), i.e., auto healing and SEGA-induced healing. This time point was referred as ‘0’ hr of healing. At this point of time, in the SEGA-induced healing group, SEGA was administered (i.p) at the dose of 50 mg kg^−1 (this dose was selected from the dose-response curve). The animals, which were not treated with SEGA and received only indomethacin, served as the auto healing group. Starting from 0 hr, the stomach was dissected out from all groups at the intervals of 2 hrs, 4 hrs and 8 hrs respectively for measuring ulcer index as described (Maity, P.; et al. J. Biol. Chem. 283:14391-14401; 2008) and histological studies.

Data set [5] has as its system Mitochondrial transmembrane potential (ΔΨm). As to the kind of experiment: Mitochondrial transmembrane potential (JC-1). The following applies: indomethacin, diclofenac; pretreatment. Type of data set: in vivo, rats. The procedure:
Mitochondrial transmembrane potential (ΔΨm) was measured as described (Maity, P.; et al. J. Biol. Chem. 284:3058-3068; 2009, Maity, P.; et al. J. Biol. Chem. 283:14391-14401; 2008, Maity, P.; et al. J. Pineal Res. 46:314-323; 2009). Mitochondria were isolated from gastric mucosal scraping using Mitoisolation kit (Biochain) as described above. Equal amount of mitochondria (25 μg) from each group (control, indomethacin, diclofenac and SEGA pre-treated indomethacin, diclofenac treated) was taken in 100 μl of JC-1 assay buffer (100 mM MOPS, pH 7.5, containing 550 mM KCl, 50 mM ATP, 50 mM MgCl2, 50 mM sodium succinate, 5 mM EGTA) and were incubated in dark with JC1 (300 nM) for 15 min at 25° C. The fluorescence of each sample was measured in a Hitachi F-7000 fluorescence spectrophtometer (excitation 490 nm, emission 530 nm for JC-1 monomer and emission 590 nm for JC-1 aggregates). ΔΨm was expressed as fluorescence ratio of 590 nm/530 nm.

Turning to `O=C(NCCc1c[nH]c2ccc(O)cc12)c1cc(O)c(O)c(O)c1` [Compound 3a, 3,4,5-trihydroxy-N-(2-(5-hydroxy-1H-indol-3-yl)ethyl)benzamide], the “indomethacin-induced apoptosis (TUNEL) in vivo” value with gastric mucosal cells was “prevents the indomethcin-induced apoptosis”. Further, the “gastroprotective effect in ethanol induced gastropathy” value in data set [1] is “protects the gastric mucosa”. Also, the “indomethacin-induced activation of caspase-3” value in the data set with caspase-3 is “prevents indomethacin-induced activation of caspase-3”. For the same molecule, in data set [2], the “mitochondrial superoxides (mitoSOX)” value was “restores all the NSAIDs-induced mitochondrial dysfuctions”. Also, the “toxicity as established by MTT reduction assay” value in data set [3] was “non toxic molecule”. Further, the “mitochondrial dehydrogenase activity (MTT reduction)” value in data set [3] (SEGA 50 μM plus indomethacin 5 mM, 16 hrs) is “restores all the NSAIDs-induced mitochondrial dysfuctions”. Moreover, in data set [4], the “healing of already damaged gastric mucosa (ulcer index)” value is “accelerates the healing process”. In data set [5], the “mitochondrial membrane potential (fluorescence ratio 590 nm/530 nm, JC-1)” value is reported as “restores all the NSAIDs-induced mitochondrial dysfuctions”.

The values are drawn from patent US8901317B2, “Tryptamine derivatives, their preparation and their use in gastropathy” (Council of Scientific & Industrial Research, priority 2010, dated 2014).
